Laboratory results taken from the NIST ThermoML archive (doi:10.1016/j.fluid.2011.02.010).

Test: xn = mol fraction of the nth substance listed
Conditions: 101 kPa, Liquid; for speed of sound: Frequency=2 MHz

CCCCn1cc[n+](C)c1.[Cl-] [1-butyl-3-methylimidazolium chloride] + C[S+](C)[O-]
Conditions	mass density [kg/m3]	speed of sound [m/s]	viscosity [mPa·s]
298.15 K, x1 = 0.0111	1096.4	1514	2.13
298.15 K, x1 = 0.0341	1096.96	1544	2.62
298.15 K, x1 = 0.0713	1097.81	1582	3.43
298.15 K, x1 = 0.1122	1098.51	1618	4.35
298.15 K, x1 = 0.1731	1098.36	1658	5.83
298.15 K, x1 = 0.2433	1097.41	1694	7.62
298.15 K, x1 = 0.3032	1095.8	1718	9.17
298.15 K, x1 = 0.3705	1093.86	1742	10.99
298.15 K, x1 = 0.4746	1090.52	1778	13.86
298.15 K, x1 = 0.5997	1086.4	1810	17.36
298.15 K, x1 = 0.7115	1083.11	1834	20.5
298.15 K, x1 = 0.843	1079.14	1848	24.28
298.15 K, x1 = 0.9445	1076.25	1856	27.39
298.15 K, x1 = 1	1074.43	1868	29.21
303.15 K, x1 = 0.0111	1093.12	1490	1.93
303.15 K, x1 = 0.0341	1094.05	1522	2.35
303.15 K, x1 = 0.0713	1094.88	1562	3.04
303.15 K, x1 = 0.1122	1095.16	1598	3.86
303.15 K, x1 = 0.1731	1095.51	1638	5.12
303.15 K, x1 = 0.2433	1094.39	1672	6.66
303.15 K, x1 = 0.3032	1092.84	1698	8.04
303.15 K, x1 = 0.3705	1090.91	1718	9.63
303.15 K, x1 = 0.4746	1087.56	1752	12.14
303.15 K, x1 = 0.5997	1083.53	1792	15.22
303.15 K, x1 = 0.7115	1080.09	1820	17.99
303.15 K, x1 = 0.843	1076.19	1844	21.34
303.15 K, x1 = 0.9445	1073.27	1852	24.12
303.15 K, x1 = 1	1071.38	1860	25.72
308.15 K, x1 = 0.0111	1087.12	1478	1.77
308.15 K, x1 = 0.0341	1088.6	1510	2.12
308.15 K, x1 = 0.0713	1089.65	1550	2.68
308.15 K, x1 = 0.1122	1090.4	1586	3.31
308.15 K, x1 = 0.1731	1090.8	1630	4.34
308.15 K, x1 = 0.2433	1089.91	1664	5.53
308.15 K, x1 = 0.3032	1088.61	1690	6.63
308.15 K, x1 = 0.3705	1086.93	1712	7.91
308.15 K, x1 = 0.4746	1083.87	1748	9.96
308.15 K, x1 = 0.5997	1080.1	1786	12.5
308.15 K, x1 = 0.7115	1076.93	1812	14.79
308.15 K, x1 = 0.843	1072.98	1832	17.57
308.15 K, x1 = 0.9445	1070.09	1840	19.84
308.15 K, x1 = 1	1068.32	1848	21.21
318.15 K, x1 = 0.0111	1077.1	1450	1.51
318.15 K, x1 = 0.0341	1078.9	1484	1.82
318.15 K, x1 = 0.0713	1080.54	1520	2.3
318.15 K, x1 = 0.1122	1081.62	1550	2.87
318.15 K, x1 = 0.1731	1082.42	1592	3.76
318.15 K, x1 = 0.2433	1081.92	1634	4.81
318.15 K, x1 = 0.3032	1080.89	1662	5.78
318.15 K, x1 = 0.3705	1079.44	1688	6.93
318.15 K, x1 = 0.4746	1076.76	1720	8.79
318.15 K, x1 = 0.5997	1073.27	1758	11.1
318.15 K, x1 = 0.7115	1070.22	1788	13.18
318.15 K, x1 = 0.843	1066.58	1808	15.7
318.15 K, x1 = 0.9445	1063.76	1814	17.76
318.15 K, x1 = 1	1062.14	1820	18.97
328.15 K, x1 = 0.0111	1067.04	1422	1.17
328.15 K, x1 = 0.0341	1069.24	1454	1.44
328.15 K, x1 = 0.0713	1071.41	1490	1.89
328.15 K, x1 = 0.1122	1072.82	1520	2.37
328.15 K, x1 = 0.1731	1074.01	1564	3.14
328.15 K, x1 = 0.2433	1073.91	1604	4.06
328.15 K, x1 = 0.3032	1073.16	1630	4.89
328.15 K, x1 = 0.3705	1071.9	1658	5.92
328.15 K, x1 = 0.4746	1069.49	1694	7.6
328.15 K, x1 = 0.5997	1066.39	1730	9.68
328.15 K, x1 = 0.7115	1063.48	1760	11.56
328.15 K, x1 = 0.843	1060.06	1788	13.82
328.15 K, x1 = 0.9445	1057.44	1796	15.65
328.15 K, x1 = 1	1055.89	1804	16.74

CC[NH2+]CC.O=S(=O)([O-])O [diethylammonium hydrogen sulfate] + C[S+](C)[O-]
Conditions	mass density [kg/m3]	speed of sound [m/s]	viscosity [mPa·s]
298.15 K, x1 = 0.0569	–	1486	2.94
298.15 K, x1 = 0.1196	–	1476	4.13
298.15 K, x1 = 0.189	–	1466	5.55
298.15 K, x1 = 0.2461	–	1460	6.77
298.15 K, x1 = 0.308	–	1450	8.15
298.15 K, x1 = 0.3756	–	1444	9.66
298.15 K, x1 = 0.4494	–	1434	11.38
298.15 K, x1 = 0.5306	–	1428	13.31
298.15 K, x1 = 0.6201	–	1424	15.49
298.15 K, x1 = 0.6852	–	1420	17.12
298.15 K, x1 = 0.7552	–	1420	18.87
298.15 K, x1 = 0.8306	–	1426	20.88
298.15 K, x1 = 0.912	–	1428	23.1
298.15 K, x1 = 1	1028.39	1432	25.8
303.15 K, x1 = 0.0569	–	1462	2.53
303.15 K, x1 = 0.1196	–	1452	3.48
303.15 K, x1 = 0.189	–	1442	4.64
303.15 K, x1 = 0.2461	–	1434	5.62
303.15 K, x1 = 0.308	–	1426	6.74
303.15 K, x1 = 0.3756	–	1418	8.01
303.15 K, x1 = 0.4494	–	1410	9.41
303.15 K, x1 = 0.5306	–	1404	11.02
303.15 K, x1 = 0.6201	–	1400	12.83
303.15 K, x1 = 0.6852	–	1398	14.18
303.15 K, x1 = 0.7552	–	1398	15.65
303.15 K, x1 = 0.8306	–	1400	17.27
303.15 K, x1 = 0.9121	–	1404	19.14
303.15 K, x1 = 1	1023.97	1408	21.3
308.15 K, x1 = 0.0569	–	1446	2.33
308.15 K, x1 = 0.1196	–	1436	3.16
308.15 K, x1 = 0.189	–	1428	4.12
308.15 K, x1 = 0.2461	–	1418	4.94
308.15 K, x1 = 0.308	–	1410	5.85
308.15 K, x1 = 0.3756	–	1402	6.86
308.15 K, x1 = 0.4494	–	1396	8.02
308.15 K, x1 = 0.5306	–	1388	9.35
308.15 K, x1 = 0.6201	–	1384	10.89
308.15 K, x1 = 0.6852	–	1384	12.06
308.15 K, x1 = 0.7552	–	1382	13.39
308.15 K, x1 = 0.8306	–	1384	14.84
308.15 K, x1 = 0.9121	–	1388	16.38
308.15 K, x1 = 1	1020.54	1392	18.1
318.15 K, x1 = 0.0569	–	1414	2
318.15 K, x1 = 0.1196	–	1404	2.63
318.15 K, x1 = 0.189	–	1392	3.33
318.15 K, x1 = 0.2461	–	1386	3.93
318.15 K, x1 = 0.308	–	1378	4.59
318.15 K, x1 = 0.3756	–	1370	5.34
318.15 K, x1 = 0.4494	–	1362	6.22
318.15 K, x1 = 0.5306	–	1356	7.19
318.15 K, x1 = 0.6201	–	1350	8.32
318.15 K, x1 = 0.6852	–	1348	9.16
318.15 K, x1 = 0.7552	–	1346	10.1
318.15 K, x1 = 0.8306	–	1348	11.1
318.15 K, x1 = 0.9121	–	1352	12.3
318.15 K, x1 = 1	1012.68	1356	13.61
328.15 K, x1 = 0.0569	–	1400	1.6
328.15 K, x1 = 0.1196	–	1406	2.24
328.15 K, x1 = 0.189	–	1392	2.95
328.15 K, x1 = 0.2461	–	1382	3.51
328.15 K, x1 = 0.308	–	1372	4.12
328.15 K, x1 = 0.3756	–	1362	4.77
328.15 K, x1 = 0.4494	–	1352	5.46
328.15 K, x1 = 0.5306	–	1342	6.21
328.15 K, x1 = 0.6201	–	1332	7.02
328.15 K, x1 = 0.6852	–	1326	7.57
328.15 K, x1 = 0.7552	–	1322	8.17
328.15 K, x1 = 0.8306	–	1320	8.8
328.15 K, x1 = 0.9121	–	1322	9.48
328.15 K, x1 = 1	1004.83	1324	10.2
